The supplement of paper PMC10627819

What was measured:
S. aureus Newman [1] = assay: fitness (endpoint OD595 vs no drug) (fraction); higher = more growth
Summary of the method: (§1)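 Fitness was defined as the optical density at the transition into stationary phase relative to the robust mean of no-drug control wells. Values were capped at 1. Cultures were started at OD595 0.01 in 384-well plates (30 µl, or 55 µl for S. pneumoniae) in TSB, LB Lennox or CY at 37 °C. OD595 was recorded every 30 min over 14 h, with the first reading subtracted as background.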

S. pneumoniae D39V [2] = assay: as above
Summary of the method: as §1

B. subtilis 168 = assay: Bliss interaction score (quartile over a dose matrix) (fitness difference); higher = more antagonism (negative = synergy)
Summary of the method: (§2)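 Values were capped at 1 after dividing OD595 at stationary-phase entry by the plate's robust no-drug mean. This ratio is fitness, and single-drug fitness was inferred from the combination data. The Bliss score is observed minus product-expected fitness, given as quartiles over technical, biological and donor/recipient replicates.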

S. aureus DSM 20231 = assay: as above
Summary of the method: as §2

S. aureus Newman [3] = assay: as above
Summary of the method: as §2

S. pneumoniae D39V [4] = assay: as above
Summary of the method: as §2
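Wherever Bliss interaction score (quartile over a dose matrix) is given: first quartile when negative (synergy) and third quartile when positive (antagonism).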

CC1(C)S[C@@H]2[C@H](NC(=O)[C@H](N)c3ccc(O)cc3)C(=O)N2[C@H]1C(=O)O [Amoxicillin] + CN(C)c1cc(NC(=O)CNC(C)(C)C)c(O)c2c1C[C@H]1C[C@H]3[C@H](N(C)C)C(O)=C(C(N)=O)C(=O)[C@@]3(O)C(O)=C1C2=O [Tigecycline]
Conditions | fitness
S. aureus Newman [1], first compound 0.0625 µg/mL, partner 0.039 µg/mL | 0.892
S. aureus Newman [1], first compound 0.0625 µg/mL, partner 0.078 µg/mL | 0.903
S. aureus Newman [1], first compound 0.0625 µg/mL, partner 0.156 µg/mL | 0.884
S. aureus Newman [1], first compound 0.125 µg/mL, partner 0.039 µg/mL | 0.875
S. aureus Newman [1], first compound 0.125 µg/mL, partner 0.078 µg/mL | 0.922
S. aureus Newman [1], first compound 0.125 µg/mL, partner 0.156 µg/mL | 0.862
S. aureus Newman [1], first compound 0.25 µg/mL, partner 0.039 µg/mL | 0.799
S. aureus Newman [1], first compound 0.25 µg/mL, partner 0.078 µg/mL | 0.867
S. aureus Newman [1], first compound 0.25 µg/mL, partner 0.156 µg/mL | 0.817
S. pneumoniae D39V [2], first compound 0.0008 µg/mL, partner 0.65 µg/mL | 0.928
S. pneumoniae D39V [2], first compound 0.0008 µg/mL, partner 1.3 µg/mL | ≥ 1
S. pneumoniae D39V [2], first compound 0.0008 µg/mL, partner 2.6 µg/mL | 0.968
S. pneumoniae D39V [2], first compound 0.0015 µg/mL, partner 0.325 µg/mL | 0.941
S. pneumoniae D39V [2], first compound 0.0015 µg/mL, partner 0.65 µg/mL | 0.942
S. pneumoniae D39V [2], first compound 0.0015 µg/mL, partner 1.3 µg/mL | 0.994
S. pneumoniae D39V [2], first compound 0.0015 µg/mL, partner 2.6 µg/mL | 0.956
S. pneumoniae D39V [2], first compound 0.003 µg/mL, partner 0.325 µg/mL | 0.904
S. pneumoniae D39V [2], first compound 0.003 µg/mL, partner 0.65 µg/mL | 0.921
S. pneumoniae D39V [2], first compound 0.003 µg/mL, partner 1.3 µg/mL | 0.944
S. pneumoniae D39V [2], first compound 0.003 µg/mL, partner 2.6 µg/mL | 0.877

fitness, S. pneumoniae D39V [2], one replicate
Conditions | partner 0.325 µg/mL | partner 0.65 µg/mL | partner 1.3 µg/mL
first compound 0.0008 µg/mL | 0.969 | – | –
first compound 0.006 µg/mL | 0.386 | 0.449 | 0.458

Conditions | Bliss interaction score
B. subtilis 168 | -0.0604
S. aureus DSM 20231 | -0.0322
S. aureus Newman [3] | 0.0642
S. pneumoniae D39V [4] | 0.0424

CC1(C)S[C@@H]2[C@H](NC(=O)[C@H](N)c3ccc(O)cc3)C(=O)N2[C@H]1C(=O)O [Amoxicillin] + CN[C@@H]1[C@H](O[C@H]2[C@H](O[C@H]3[C@H](O)[C@@H](O)[C@H](N=C(N)N)[C@@H](O)[C@@H]3N=C(N)N)O[C@@H](C)[C@]2(O)C=O)O[C@@H](CO)[C@H](O)[C@H]1O [Streptomycin]
fitness
Conditions | first compound 0.0008 µg/mL | first compound 0.0015 µg/mL | first compound 0.003 µg/mL | first compound 0.0625 µg/mL | first compound 0.125 µg/mL | first compound 0.25 µg/mL
S. aureus Newman [1], partner 1 µg/mL | – | – | – | 0.857 | 0.856 | 0.845
S. aureus Newman [1], partner 2 µg/mL | – | – | – | 0.823 | 0.792 | 0.798
S. pneumoniae D39V [2], partner 2 µg/mL | 0.979 | 0.931 | 0.899 | – | – | –
S. pneumoniae D39V [2], partner 4 µg/mL | 0.947 | 0.877 | 0.866 | – | – | –
S. pneumoniae D39V [2], partner 8 µg/mL | 0.968 | 0.929 | 0.895 | – | – | –

one replicate
Conditions | fitness
S. aureus Newman [1], first compound 0.0625 µg/mL, partner 8 µg/mL | 0.0265
S. aureus Newman [1], first compound 0.125 µg/mL, partner 8 µg/mL | 0.0373
S. aureus Newman [1], first compound 0.25 µg/mL, partner 8 µg/mL | 0.0414
S. pneumoniae D39V [2], first compound 0.0008 µg/mL, partner 16 µg/mL | 0.807
S. pneumoniae D39V [2], first compound 0.0015 µg/mL, partner 16 µg/mL | 0.749
S. pneumoniae D39V [2], first compound 0.003 µg/mL, partner 16 µg/mL | 0.724
S. pneumoniae D39V [2], first compound 0.006 µg/mL, partner 2 µg/mL | 0.488
S. pneumoniae D39V [2], first compound 0.006 µg/mL, partner 4 µg/mL | 0.413
S. pneumoniae D39V [2], first compound 0.006 µg/mL, partner 8 µg/mL | 0.274

Conditions | Bliss interaction score
B. subtilis 168 | -0.054
S. aureus DSM 20231 | -0.0777
S. aureus Newman [3] | -0.0764
S. pneumoniae D39V [4] | 0.0594

CC1(C)S[C@@H]2[C@H](NC(=O)[C@H](N)c3ccc(O)cc3)C(=O)N2[C@H]1C(=O)O [Amoxicillin] + CO/N=C(\C(=O)N[C@@H]1C(=O)N2C(C(=O)O)=C(COC(N)=O)CS[C@H]12)c1ccco1 [Cefuroxime]
fitness, S. aureus Newman [1], one replicate
Conditions | first compound 0.0625 µg/mL | first compound 0.125 µg/mL | first compound 0.25 µg/mL
partner 0.04875 µg/mL | 0.944 | 0.932 | 0.841
partner 0.0975 µg/mL | 0.895 | 0.804 | 0.747
partner 0.195 µg/mL | 0.895 | 0.805 | 0.772

Conditions | Bliss interaction score
B. subtilis 168 | 0.0792
S. aureus DSM 20231 | -0.127
S. aureus Newman [3] | 0.097
S. pneumoniae D39V [4] | 0.0491

CC1(C)S[C@@H]2[C@H](NC(=O)[C@H](N)c3ccc(O)cc3)C(=O)N2[C@H]1C(=O)O [Amoxicillin] + O=C(O)c1cn(C2CC2)c2cc(N3CCNCC3)c(F)cc2c1=O [Ciprofloxacin]
Conditions | fitness
S. aureus Newman [1], first compound 0.0625 µg/mL, partner 0.0375 µg/mL | 0.734
S. aureus Newman [1], first compound 0.0625 µg/mL, partner 0.075 µg/mL | 0.656
S. pneumoniae D39V [2], first compound 0.0008 µg/mL, partner 0.125 µg/mL | 0.93
S. pneumoniae D39V [2], first compound 0.0008 µg/mL, partner 0.25 µg/mL | 0.834
S. pneumoniae D39V [2], first compound 0.0015 µg/mL, partner 0.125 µg/mL | 0.94
S. pneumoniae D39V [2], first compound 0.0015 µg/mL, partner 0.25 µg/mL | 0.828
S. pneumoniae D39V [2], first compound 0.003 µg/mL, partner 0.125 µg/mL | 0.934
S. pneumoniae D39V [2], first compound 0.003 µg/mL, partner 0.25 µg/mL | 0.826
S. pneumoniae D39V [2], first compound 0.003 µg/mL, partner 0.5 µg/mL | 0.747

fitness, one replicate
Conditions | partner 0.078 µg/mL | partner 0.125 µg/mL | partner 0.156 µg/mL | partner 0.25 µg/mL | partner 0.312 µg/mL | partner 0.5 µg/mL
S. aureus Newman [1], first compound 0.0625 µg/mL | 0.327 | – | 0.075 | – | 0.0582 | –
S. aureus Newman [1], first compound 0.125 µg/mL | 0.192 | – | 0.0621 | – | 0.038 | –
S. aureus Newman [1], first compound 0.25 µg/mL | 0.144 | – | 0.056 | – | 0.0663 | –
S. pneumoniae D39V [2], first compound 0.006 µg/mL | – | 0.549 | – | 0.474 | – | 0.453

Conditions | Bliss interaction score
B. subtilis 168 | -0.063
S. aureus DSM 20231 | -0.0788
S. aureus Newman [3] | -0.0561
S. pneumoniae D39V [4] | 0.0751

CO/N=C(\C(=O)N[C@@H]1C(=O)N2C(C(=O)[O-])=C(C[N+]3(C)CCCC3)CS[C@H]12)c1csc(N)n1 [Cefepime] + C/C(=C\C(=O)OCCCCCCCCC(=O)O)C[C@@H]1OC[C@H](C[C@@H]2O[C@H]2[C@@H](C)[C@H](C)O)[C@@H](O)[C@H]1O [Pseudomonic acid]
fitness, S. aureus Newman [1], one replicate
Conditions | first compound 0.125 µg/mL | first compound 0.25 µg/mL | first compound 0.5 µg/mL
partner 0.0313 µg/mL | 0.0486 | 0.044 | 0.0558
partner 0.0625 µg/mL | 0.0381 | 0.0306 | 0.0329
partner 0.125 µg/mL | 0.0329 | 0.0557 | 0.0514

fitness, S. pneumoniae D39V [2]
Conditions | first compound 0.007 µg/mL | first compound 0.0078 µg/mL | first compound 0.014 µg/mL | first compound 0.0155 µg/mL | first compound 0.028 µg/mL | first compound 0.031 µg/mL
partner 0.03 µg/mL | ≥ 1 | 0.93 | ≥ 1 | 0.945 | ≥ 1 | 0.747
partner 0.06 µg/mL | 0.924 | 0.814 | 0.976 | 0.796 | 0.968 | 0.631
partner 0.12 µg/mL | 0.583 | 0.578 | 0.631 | 0.56 | 0.568 | 0.382

Conditions | Bliss interaction score
B. subtilis 168 | 0.0521
S. aureus DSM 20231 | 0.0141
S. aureus Newman [3] | 0.0093
S. pneumoniae D39V [4] | 0.0923
